According to ChEMBL document CHEMBL1201862, “PubChem BioAssay data set” (2004):
One block for each compound: values may come before it. Calls of active or inactive are those of the source. Unless noted, no cut-off for these calls is given here.

What was measured:
[1] = target: T1, Kappa-type opioid receptor (Homo sapiens, UniProt P41145); assay: SAR analysis of small molecule agonists of the kappa opioid receptor via a luminescent beta-arrestin assay. [Related pubchem assays (depositor defined):AID1777, AID1786, AID1966, AID2133, AID2136, AID2348, AID2352, AID2357, AID2359, AID2370, AID2420, AID2478, AID2491, AID2492, AID2493, AID2497, AID2498, AID2500, AID449737, AID488822, AID488842]; format: functional
[2] = target: T1, Kappa-type opioid receptor; assay: KOR agonist analogs, imaging readout, SAR follow-up, image-based (AID 2359); format: functional
[3] = target: T1, Kappa-type opioid receptor; assay: KOR antagonists by imaging, SAR follow-up, image-based (AID 2348); format: functional
[4] = target: T2, Mu-type opioid receptor (Homo sapiens, UniProt P35372); assay: MOR agonists by imaging, SAR follow-up, image-based (AID 2352); format: functional
[5] = target: T2, Mu-type opioid receptor; assay: MOR antagonists, SAR follow-up, image-based (AID 2420); format: functional;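 note: compounds added before stimulation of receptor with agonist DAMGO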
[6] = target: T3, Delta-type opioid receptor (Homo sapiens, UniProt P41143); assay: DOR agonists, SAR follow-up, image-based (AID 2370); format: functional
[7] = target: T3, Delta-type opioid receptor; assay: DOR antagonists, SAR follow-up, image-based (AID 2357); format: functional
[8] = target: T4, E3 ubiquitin-protein ligase XIAP (Homo sapiens, UniProt P98170); assay: SAR analysis of Antagonists of XIAP-Bir3 domain of IAP-family anti-apoptotic proteins. [Related pubchem assays (depositor defined):AID1018, AID1449, AID1513, AID1514, AID1638]
[9] = target: T4, E3 ubiquitin-protein ligase XIAP; assay: SAR analysis of Antagonists of IAP-family anti-apoptotic proteins. [Related pubchem assays (depositor defined):AID1018, AID1449, AID1513, AID1514, AID1638]
[10] = target: T5, G-protein coupled receptor 35 (Homo sapiens, UniProt Q9HC97); assay: SAR analysis of Antagonists of the GPR35 Receptor using an Image-Based Assay - Set 6. [Related pubchem assays (depositor defined):AID2013, AID2026]; format: functional
[11] = target: T6, Cannabinoid receptor 1 (Homo sapiens, UniProt P21554); assay: SAR analysis of antagonists of the Cannabinoid Receptor 1 using an Image-Based Assay - Set 4. [Related pubchem assays (depositor defined):AID2013, AID2026]; format: functional
[12] = target: T7, Cannabinoid receptor 2 (Homo sapiens, UniProt P34972); assay: SAR analysis of antagonists of the Cannabinoid Receptor 2 using an Image-Based Assay - Set 3. [Related pubchem assays (depositor defined):AID2013, AID2026]; format: functional
[13] = target: T7, Cannabinoid receptor 2; assay: SAR analysis of agonists of the Cannabinoid Receptor 2 using an Image-Based Assay - Set 3. [Related pubchem assays (depositor defined):AID2013, AID2026]; format: functional
[14] = target: T5, G-protein coupled receptor 35; assay: SAR analysis of Agonists of the GPR35 Receptor using an Image-Based Assay - Set 4. [Related pubchem assays (depositor defined):AID2013, AID2026]; format: functional
[15] = target: T6, Cannabinoid receptor 1; assay: SAR analysis of agonists of the Cannabinoid Receptor 1 using an Image-Based Assay - Set 4. [Related pubchem assays (depositor defined):AID2013, AID2026]; format: functional
[16] = target: G-protein coupled receptor 55 (Homo sapiens, UniProt Q9Y2T6); assay: SAR Analysis of Selective Antagonists of GPR55 using an Image-Based Assay - Set 4. [Related pubchem assays (depositor defined):AID2013, AID2026]; format: functional;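 note: antagonism of response to 5 µM lysophosphatidylinositol agonist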
[17] = target: T1, Kappa-type opioid receptor; assay: SAR analysis of small molecule agonists of the kappa opioid receptor via a luminescent beta-arrestin assay - Set 2. [Related pubchem assays (depositor defined):AID1777, AID1785, AID1786, AID1966, AID2133, AID2136, AID2284, AID449737]; format: functional
[18] = target: T1, Kappa-type opioid receptor; assay: SAR analysis of Agonists of the Kappa Opioid Receptor (KOR) using an Image-Based Assay - Set 2. [Related pubchem assays (depositor defined):AID1777, AID1786, AID1966, AID2133, AID2136, AID2284, AID2285, AID2359]; format: functional
[19] = target: T1, Kappa-type opioid receptor; assay: KOR antagonist analogs, beta-arrestin recruitment, SAR follow-up, cell-based, luminescence, set 2 (AID 2495); format: functional
[20] = target: T3, Delta-type opioid receptor; assay: SAR Analysis of Agonists of the DOR Receptor using an Image-Based Assay - Set 2. [Related pubchem assays (depositor defined):AID1777, AID1785, AID1786, AID1966, AID2133, AID2136, AID2284, AID2285, AID2370]; format: functional
[21] = target: T2, Mu-type opioid receptor; assay: SAR Analysis of Agonists of the MOR Receptor using an Image-Based Assay - Set 2. [Related pubchem assays (depositor defined):AID1777, AID1785, AID1786, AID1966, AID2133, AID2136, AID2284, AID2285, AID2352]; format: functional
[22] = target: T2, Mu-type opioid receptor; assay: SAR Analysis of Antagonists of the MOR Receptor using an Image-Based Assay - Set 2. [Related pubchem assays (depositor defined):AID1777, AID1785, AID1786, AID1966, AID2133, AID2136, AID2284, AID2285, AID2420]; format: functional
[23] = target: T1, Kappa-type opioid receptor; assay: SAR analysis of Antagonists of the Kappa Opioid Receptor (KOR) using an Image-Based Assay - Set 2. [Related pubchem assays (depositor defined):AID1777, AID1785, AID1786, AID1966, AID2133, AID2136, AID2284, AID2285, AID2348]; format: functional
[24] = target: T3, Delta-type opioid receptor; assay: SAR Analysis of Antagonists of the DOR Receptor using an Image-Based Assay - Set 2. [Related pubchem assays (depositor defined):AID1777, AID1785, AID1786, AID1966, AID2133, AID2136, AID2284, AID2285, AID2357]; format: functional

T2 sequence (P35372 whole entry): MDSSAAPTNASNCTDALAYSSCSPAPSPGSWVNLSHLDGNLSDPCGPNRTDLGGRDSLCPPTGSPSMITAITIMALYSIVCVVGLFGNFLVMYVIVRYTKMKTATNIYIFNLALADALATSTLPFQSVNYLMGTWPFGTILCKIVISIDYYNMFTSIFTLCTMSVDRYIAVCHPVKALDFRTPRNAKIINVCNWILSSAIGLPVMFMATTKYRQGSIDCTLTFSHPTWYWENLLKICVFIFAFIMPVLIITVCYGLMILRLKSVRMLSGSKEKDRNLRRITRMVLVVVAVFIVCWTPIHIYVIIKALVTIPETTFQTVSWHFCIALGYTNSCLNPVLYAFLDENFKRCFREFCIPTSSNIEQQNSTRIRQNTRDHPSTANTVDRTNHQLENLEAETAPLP
T1 sequence (P41145 whole entry): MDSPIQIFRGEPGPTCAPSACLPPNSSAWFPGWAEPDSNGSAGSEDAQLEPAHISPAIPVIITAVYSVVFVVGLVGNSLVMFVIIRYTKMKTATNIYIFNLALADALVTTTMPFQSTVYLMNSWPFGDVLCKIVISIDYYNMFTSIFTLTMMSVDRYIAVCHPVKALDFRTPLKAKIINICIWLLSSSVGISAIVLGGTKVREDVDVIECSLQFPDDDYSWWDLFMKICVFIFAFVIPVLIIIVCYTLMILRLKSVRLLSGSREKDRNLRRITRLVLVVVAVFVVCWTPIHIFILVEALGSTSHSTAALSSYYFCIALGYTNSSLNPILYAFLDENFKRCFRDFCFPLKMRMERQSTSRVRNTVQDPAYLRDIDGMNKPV
T3 sequence (P41143 whole entry): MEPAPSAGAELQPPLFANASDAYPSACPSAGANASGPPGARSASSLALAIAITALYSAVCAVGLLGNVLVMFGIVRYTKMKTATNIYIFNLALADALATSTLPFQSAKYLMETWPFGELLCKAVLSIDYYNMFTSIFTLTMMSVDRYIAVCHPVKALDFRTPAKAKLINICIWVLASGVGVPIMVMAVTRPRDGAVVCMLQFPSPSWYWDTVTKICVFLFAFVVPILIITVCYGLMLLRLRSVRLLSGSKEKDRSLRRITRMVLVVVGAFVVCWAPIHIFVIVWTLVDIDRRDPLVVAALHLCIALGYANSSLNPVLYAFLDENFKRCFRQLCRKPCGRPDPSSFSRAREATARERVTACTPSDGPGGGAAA
T5 sequence (Q9HC97 whole entry): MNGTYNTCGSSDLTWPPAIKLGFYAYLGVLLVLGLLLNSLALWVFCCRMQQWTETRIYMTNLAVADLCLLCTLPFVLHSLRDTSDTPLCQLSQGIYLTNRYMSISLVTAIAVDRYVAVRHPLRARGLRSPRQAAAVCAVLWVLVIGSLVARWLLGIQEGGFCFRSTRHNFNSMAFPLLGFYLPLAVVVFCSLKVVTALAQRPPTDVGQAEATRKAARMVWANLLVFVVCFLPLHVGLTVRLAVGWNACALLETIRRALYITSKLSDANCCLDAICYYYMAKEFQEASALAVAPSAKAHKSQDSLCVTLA
T4 sequence (P98170 whole entry, the tested form may be a part): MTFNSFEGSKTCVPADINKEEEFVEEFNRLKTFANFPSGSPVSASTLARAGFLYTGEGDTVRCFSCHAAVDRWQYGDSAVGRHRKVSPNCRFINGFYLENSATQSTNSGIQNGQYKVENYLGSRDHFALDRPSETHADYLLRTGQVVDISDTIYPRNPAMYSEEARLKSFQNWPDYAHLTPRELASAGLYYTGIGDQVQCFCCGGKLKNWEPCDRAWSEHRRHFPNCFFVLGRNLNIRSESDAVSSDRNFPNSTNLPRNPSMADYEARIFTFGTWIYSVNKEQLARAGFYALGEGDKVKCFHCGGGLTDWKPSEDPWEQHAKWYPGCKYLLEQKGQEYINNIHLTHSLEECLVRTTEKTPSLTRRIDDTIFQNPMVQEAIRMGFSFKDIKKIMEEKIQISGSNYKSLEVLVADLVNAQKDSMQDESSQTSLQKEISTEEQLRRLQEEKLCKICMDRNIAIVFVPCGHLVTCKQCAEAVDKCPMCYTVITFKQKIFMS
T6 sequence (P21554 whole entry): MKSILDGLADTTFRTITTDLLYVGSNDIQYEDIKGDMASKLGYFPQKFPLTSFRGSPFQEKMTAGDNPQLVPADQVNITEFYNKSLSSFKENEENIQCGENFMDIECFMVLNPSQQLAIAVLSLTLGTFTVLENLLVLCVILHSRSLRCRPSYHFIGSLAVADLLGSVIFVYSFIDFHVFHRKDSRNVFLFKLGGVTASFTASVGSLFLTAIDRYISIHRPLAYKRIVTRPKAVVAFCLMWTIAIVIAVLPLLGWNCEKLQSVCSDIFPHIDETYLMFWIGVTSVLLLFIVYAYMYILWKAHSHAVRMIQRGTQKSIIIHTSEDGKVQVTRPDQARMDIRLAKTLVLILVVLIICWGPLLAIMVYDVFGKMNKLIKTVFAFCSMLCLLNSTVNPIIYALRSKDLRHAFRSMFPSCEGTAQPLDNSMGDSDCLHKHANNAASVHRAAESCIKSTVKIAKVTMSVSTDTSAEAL
T7 sequence (P34972 whole entry): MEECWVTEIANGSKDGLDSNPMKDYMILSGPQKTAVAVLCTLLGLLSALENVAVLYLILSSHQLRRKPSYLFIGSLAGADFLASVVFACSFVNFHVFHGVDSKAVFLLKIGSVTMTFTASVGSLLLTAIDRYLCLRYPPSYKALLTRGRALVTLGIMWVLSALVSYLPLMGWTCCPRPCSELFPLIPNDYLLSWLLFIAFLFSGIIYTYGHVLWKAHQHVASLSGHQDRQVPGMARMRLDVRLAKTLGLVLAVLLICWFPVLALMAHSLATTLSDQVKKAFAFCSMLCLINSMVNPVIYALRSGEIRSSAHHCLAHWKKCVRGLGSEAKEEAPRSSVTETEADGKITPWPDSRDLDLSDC
Sequence of G-protein coupled receptor 55 (Q9Y2T6 whole entry): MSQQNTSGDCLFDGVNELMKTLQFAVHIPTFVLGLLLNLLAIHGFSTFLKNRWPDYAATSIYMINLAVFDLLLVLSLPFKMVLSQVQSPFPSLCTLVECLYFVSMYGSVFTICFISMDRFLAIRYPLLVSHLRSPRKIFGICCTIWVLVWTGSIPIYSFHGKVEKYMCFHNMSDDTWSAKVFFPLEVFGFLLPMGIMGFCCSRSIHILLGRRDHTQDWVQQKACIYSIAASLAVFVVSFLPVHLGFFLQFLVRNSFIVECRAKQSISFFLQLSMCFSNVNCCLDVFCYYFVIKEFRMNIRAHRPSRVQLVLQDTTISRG

EC50 [1]: > 10 µM (inactive)
EC50 [2]: 7.66 µM (active)
IC50 [3]: > 32 µM (inactive)
EC50 [4]: > 32 µM (inactive)
IC50 [5]: > 32 µM (inactive)
EC50 [6]: > 32 µM (inactive)
IC50 [7]: > 32 µM (inactive)
Structure (SMILES): O=C(CSc1nnc(-c2ccccn2)n1Cc1ccco1)c1ccc(Cl)cc1

IC50 [8]: > 100 µM (inactive)
IC50 [9]: 3.9 µM (active)
Structure (SMILES): CN[C@@H](C)C(=O)N[C@H](C(=O)N[C@H](C(=O)Nc1cccc2ccccc12)C(C)C)C(C)C

IC50 [10]: > 32 µM (inactive)
IC50 [11]: > 32 µM (inactive)
IC50 [12]: > 32 µM (inactive)
EC50 [13]: 2.33 µM (active)
EC50 [14]: > 32 µM (inactive)
EC50 [15]: > 32 µM (inactive)
IC50 [16]: > 32 µM (inactive)
Structure (SMILES): COCCCNC(=O)c1cc2c(=O)n3ccccc3nc2n(C2CCCC2)c1=N

EC50 [17]: 4.97 µM (active)
EC50 [18]: > 32 µM (inactive)
IC50 [19]: > 20 µM (inactive)
EC50 [20]: > 32 µM (inactive)
EC50 [21]: > 32 µM (inactive)
IC50 [22]: > 32 µM (inactive)
IC50 [23]: > 32 µM (inactive)
IC50 [24]: 13.9 µM (inactive)
Structure (SMILES): Cc1cc(C)c(S(=O)(=O)NCc2ccc(C(=O)NCCN3Cc4ccccc4C3)cc2)c(C)c1
